Assay results as given in patent US11077050B2, “Formulation for parenteral administration” (MERCK SHARP & DOHME CORP., priority 2017, dated 2021).

Assay: pKa of doravirine
Type: physicochemical

Compound `Cn1c(Cn2ccc(C(F)(F)F)c(Oc3cc(Cl)cc(C#N)c3)c2=O)n[nH]c1=O` [Doravirine] has a pKa of 9.47.
